Experiments:
[1] = biological target: CDK9 (Homo sapiens (Human), UniProt P50750); assay: In vitro kinase inhibition, KinaseProfiler service of Millipore, residual activity; assay type: biochemical; conditions: for CDK9 10 nM (RA in %) / remaining activity at 0.01 µM: residual activity at 10 nM compound; for CDK9 100 nM (RA in %) / remaining activity at 0.1 µM: residual activity at 100 nM compound; for remaining activity at 0.01 µM: read-out: CDK9 10 nM (RA in %); for remaining activity at 0.1 µM: read-out: CDK9 100 nM (RA in %)
Excerpt: In vitro kinase assay analysis may be performed using standard techniques described in the art. These techniques are also used by commercial services providers in order to offer in vitro kinase activity assay services, e.g. the assays offered by Millipore Inc. (worldwide website www(dot)millipore.com), ProQinase GmbH (worldwide website www(dot)proqinase.de) and others.
In vitro kinase inhibition results shown in columns 7 to 9 in Table 1 were obtained by employing the KinaseProfiler™ service of Millipore and used to select compounds displaying specificity for CDK9. Specifically, it was intended to distinguish the CDK9-specific compounds from other compounds having significant inhibitory potency also with regard to other CDKs.

[2] = tested on: TNF-alpha inducible reporter gene; assay: Inhibition of TNF-alpha-induced reporter gene expression (luciferase) in HeLa-derived cell line; assay type: cell-based, human; conditions: remaining luciferase activity in presence of 3 μM of compound as ratio of DMSO-treated cells, TNF-alpha 50 ng/ml; for activity at 3 µM: Homo sapiens, 6 h, read-out: Efficacy (ratio to DMSO) TNF-alpha induced response; for Efficacy (ratio to DMSO) TNF-alpha induced response: 6 hours
Excerpt: TNF-alpha responsive cell lines like the human HeLa cell line can be used to study cellular responses to TNF-alpha, e.g. transcriptional regulation of a transfected TNF-alpha responsive reporter gene, and effects of kinase inhibitors on this response.
In order to analyse compound effects on TNF-alpha mediated transcriptional response, a HeLa-derived cell line stably transfected with a TNF-alpha inducible reporter gene was used (Panomics Catalog No. RC0013). The cell line was obtained by co-transfection of a luciferase reporter gene (Panomics P/N LR0051) and pHyg into human cervical epithelial HeLa cells, followed by hygromycin selection. TNFα-induced luciferase activity was used to select clones from the hygromycin-resistant cells. The cell line was maintained and stimulated according to the manufacturer's instructions. Briefly, cells were seeded at 5×10^5/well in 1 ml of growth medium in a 12-well plate and incubated in a humidified incubator at 37° C. and 5% CO2 for 24 hours. Medium was replaced with 1 ml of serum free medium and compounds were added up to concentrations of […]. After 1 hour of incubation, TNF-alpha was added to achieve a final concentration of 50 ng/ml. The culture dish was further incubated in a humidified incubator at 37° C. and 5% CO2 for 6 hours, medium was removed and 100 μL of lysis buffer were added to each well and the assay for luciferase activity was performed according to assay manufacturer's (Promega P/N E1500) recommendations. For more information about this cell line, go to worldwide website www(dot)panomics.com.
Compound effects on TNF-alpha-induced reporter gene expression is shown in column 6 in Table 1 given below. Indicated is the remaining luciferase activity after incubation in presence of 3 μM of compound as a ratio of the activity of DMSO-treated cells without compound. Specifically, it was intended to distinguish cell permeable compounds from other compounds having significant inhibitory potency with regard to other CDKs, but fail to penetrate cells or are unstable under the conditions of the experiment.

Chain of CDK9 (P50750 whole entry): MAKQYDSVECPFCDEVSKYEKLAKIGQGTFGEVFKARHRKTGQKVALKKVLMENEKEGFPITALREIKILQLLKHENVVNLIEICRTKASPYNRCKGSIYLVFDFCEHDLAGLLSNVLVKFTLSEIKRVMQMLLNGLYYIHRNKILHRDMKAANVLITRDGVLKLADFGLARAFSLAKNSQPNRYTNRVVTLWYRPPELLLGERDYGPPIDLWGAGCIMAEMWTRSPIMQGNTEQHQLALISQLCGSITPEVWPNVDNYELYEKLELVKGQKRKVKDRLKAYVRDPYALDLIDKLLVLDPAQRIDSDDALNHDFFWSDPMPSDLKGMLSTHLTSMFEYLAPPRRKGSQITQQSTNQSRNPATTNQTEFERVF
Chain of CDK9 (O60563 whole entry partner): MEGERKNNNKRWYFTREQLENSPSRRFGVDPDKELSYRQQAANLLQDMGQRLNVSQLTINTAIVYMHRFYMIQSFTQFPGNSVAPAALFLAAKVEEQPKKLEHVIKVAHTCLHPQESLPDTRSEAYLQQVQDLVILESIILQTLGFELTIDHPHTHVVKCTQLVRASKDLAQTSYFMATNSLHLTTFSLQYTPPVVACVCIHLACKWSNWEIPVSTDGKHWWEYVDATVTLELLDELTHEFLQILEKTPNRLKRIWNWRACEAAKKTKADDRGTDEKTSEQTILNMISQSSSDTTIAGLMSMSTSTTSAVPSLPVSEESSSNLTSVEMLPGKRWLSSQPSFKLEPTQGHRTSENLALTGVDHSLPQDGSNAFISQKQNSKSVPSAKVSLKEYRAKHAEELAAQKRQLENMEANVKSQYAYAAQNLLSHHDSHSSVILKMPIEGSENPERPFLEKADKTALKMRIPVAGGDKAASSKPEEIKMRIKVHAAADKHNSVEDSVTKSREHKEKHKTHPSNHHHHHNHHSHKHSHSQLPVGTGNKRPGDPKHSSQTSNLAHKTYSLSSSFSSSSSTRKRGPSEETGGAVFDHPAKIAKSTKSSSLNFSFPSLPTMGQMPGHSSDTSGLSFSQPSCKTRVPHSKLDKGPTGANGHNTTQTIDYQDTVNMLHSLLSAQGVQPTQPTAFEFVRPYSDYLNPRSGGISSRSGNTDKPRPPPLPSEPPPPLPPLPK

| Structure (SMILES) | CDK9 10 nM (RA in %) [1] [%] | CDK9 100 nM (RA in %) [1] [%] | remaining activity at 0.01 µM [1] [%] | remaining activity at 0.1 µM [1] [%] | activity at 3 µM [2] [%] | Efficacy (ratio to DMSO) TNF-alpha induced response [2] |
| --- | --- | --- | --- | --- | --- | --- |
| COc1cc(F)ccc1-c1ccnc(NC(=O)[C@H]2CCC[C@H](NC(C)=O)C2)c1 (relative stereo) [Example 25, trans-3-Acetamido-N-(4-(4-fluoro-2-methoxyphenyl)-pyridin-2-yl)cyclohexanecarboxamide] | 99 | 78 | – | – | – | – |
| COc1cc(F)ccc1-c1ccnc(NC(=O)[C@H]2CCC[C@H](NC(C)=O)C2)c1 (relative stereo) [Example 26, trans-3-Acetamido-N-(4-(4-fluoro-2-methoxyphenyl)-pyridin-2-yl)cyclohexanecarboxamide] | 33 | 5 | – | – | – | – |
| COc1cc(F)ccc1-c1ccnc(NC(=O)C2CCCCC2)c1 [Example 1, N-(4-(4-Fluoro-2-methoxyphenyl)pyridin-2-yl)cyclohexanecarboxamide] | – | – | 88 | 23 | 23 | – |
| COc1cc(F)ccc1-c1ccnc(NC(=O)CC2CCCCC2)c1 [Example 2, 2-Cyclohexyl-N-(4-(4-fluoro-2-methoxyphenyl)pyridin-2-yl)acetamide] | – | – | 78 | 33 | 49 | – |
| COc1cc(F)ccc1-c1ccnc(NC(=O)C2CCNCC2)c1 [Example 3, N-(4-(4-Fluoro-2-methoxyphenyl)pyridin-2-yl)piperidine-4-carboxamide] | – | – | 86 | 9 | 5 | – |
| COc1cc(F)ccc1-c1ccnc(NC(=O)[C@H]2CC[C@@H](N)CC2)c1 [Example 4, cis-4-Amino-N-(4-(4-fluoro-2-methoxyphenyl)pyridin-2-yl)cyclohexane-carboxamide] | – | – | 59 | 4 | 5 | – |
| COc1cc(F)ccc1-c1ccnc(NC(=O)C2CNC(=O)C2)c1 (stereo not shown) [Example 5, N-(4-(4-Fluoro-2-methoxyphenyl)pyridin-2-yl)-5-oxopyrrolidine-3-carboxamide] | – | – | 46 | 5 | 4 | – |
| COc1ccc(CC(=O)Nc2cc(-c3ccc(F)cc3OC)ccn2)cc1 [Example 6, N-(4-(4-Fluoro-2-methoxyphenyl)pyridin-2-yl)-2-(4-methoxyphenyl)-acetamide] | – | – | 68 | 16 | 7 | – |
| COc1ccc(F)cc1-c1ccnc(NC(=O)[C@@H](C)c2ccccc2)c1 [Example 10, (2S)—N-(4-(5-Fluoro-2-methoxyphenyl)pyridin-2-yl)-2-phenylpropanamide] | – | – | 68 | 10 | 10 | – |
| COc1ccc([C@H](C)C(=O)Nc2cc(-c3ccc(F)cc3OC)ccn2)cc1 [Example 11, (2S)—N-(4-(4-Fluoro-2-methoxyphenyl)pyridin-2-yl)-2-(4-methoxyphenyl)-propanamide] | – | – | 36 | 6 | 7 | – |
| COc1ccc(F)cc1-c1ccnc(NC(=O)C(C)c2cccs2)c1 (stereo not shown) [Example 17, N-(4-(5-Fluoro-2-methoxyphenyl)pyridin-2-yl)-2-(thiophen-2-yl)propanamide] | 114 | 97 | – | – | – | 0.88 |
| COc1ccc(F)cc1-c1ccnc(NC(=O)C(C)c2cccs2)c1 (stereo not shown) [Example 18, N-(4-(5-Fluoro-2-methoxyphenyl)pyridin-2-yl)-2-(thiophen-2-yl)propanamide] | 32 | 5 | – | – | – | 0.07 |
| COc1cc(F)ccc1-c1ccnc(NC(=O)Cc2ccnc(Cl)c2)c1 [Example 19, 2-(2-Chloropyridin-4-yl)-N-(4-(4-fluoro-2-methoxyphenyl)pyridin-2-yl)acetamide] | – | – | 49 | 9 | 6 | – |
| COc1cc(F)ccc1-c1ccnc(NC(=O)Cc2ccc(N3CCN(C)CC3)cc2)c1 [Example 20, N-(4-(4-Fluoro-2-methoxyphenyl)pyridin-2-yl)-2-(4-(4-methylpiperazin-1-yl)phenyl)acetamide] | – | – | 39 | 5 | 8 | – |

Further lines, with some results ahead:

| CDK9 10 nM (RA in %) [1] [%] | CDK9 100 nM (RA in %) [1] [%] | remaining activity at 0.01 µM [1] [%] | remaining activity at 0.1 µM [1] [%] | Structure (SMILES) | activity at 3 µM [2] [%] | Efficacy (ratio to DMSO) TNF-alpha induced response [2] |
| --- | --- | --- | --- | --- | --- | --- |
| – | – | 94 | 96 | COc1cc(F)ccc1-c1ccnc(NC(=O)[C@@H](C)c2cccnc2)c1 (stereo in doubt) [Example 12, N-(4-(4-Fluoro-2-methoxyphenyl)pyridin-2-yl)-2-(pyridin-3-yl)propanamide] | 83 | – |
| – | – | 78 | 17 | COc1cc(F)ccc1-c1ccnc(NC(=O)Cc2ccccc2)c1 [Example 7, N-(4-(4-Fluoro-2-methoxyphenyl)pyridin-2-yl)-2-phenylacetamide] | 8 | – |
| – | – | 93 | 7 | COc1cc(F)ccc1-c1ccnc(NC(=O)Cc2ccncc2)c1 [Example 8, N-(4-(4-Fluoro-2-methoxyphenyl)pyridin-2-yl)-2-(pyridin-4-yl)acetamide] | 4 | – |
| – | – | 76 | 16 | COc1cc(F)ccc1-c1ccnc(NC(=O)Cc2cccs2)c1 [Example 9, N-(4-(4-Fluoro-2-methoxyphenyl)pyridin-2-yl)-2-(thiophen-2-yl)acetamide] | 4 | – |
| – | – | 66 | 2 | COc1cc(F)ccc1-c1ccnc(NC(=O)C(C)c2cccnc2)c1 (stereo not shown) [Example 13, N-(4-(4-Fluoro-2-methoxyphenyl)pyridin-2-yl)-2-(pyridin-3-yl)propanamide] | 4 | – |
| – | – | 25 | 7 | COc1ccc(CC(=O)Nc2cc(-c3ccc(F)cc3OC)ccn2)cn1 [Example 14, N-(4-(4-Fluoro-2-methoxyphenyl)pyridin-2-yl)-2-(6-methoxypyridin-3-yl)acetamide] | 4 | – |
| – | 64 | 84 | – | COc1cc(F)ccc1-c1ccnc(NC(=O)C(C)c2ccncc2)c1 (stereo not shown) [Example 15, N-(4-(4-Fluoro-2-methoxyphenyl)pyridin-2-yl)-2-(pyridin-4-yl)propanamide] | – | 0.83 |
| 65 | 7 | – | – | COc1cc(F)ccc1-c1ccnc(NC(=O)C(C)c2ccncc2)c1 (stereo not shown) [Example 16, N-(4-(4-Fluoro-2-methoxyphenyl)pyridin-2-yl)-2-(pyridin-4-yl)propanamide] | – | 0.04 |
| – | – | 88 | 29 | COc1cc(F)ccc1-c1ccnc(NC(=O)CC(C)c2ccncc2)c1 (stereo not shown) [Example 21, N-(4-(4-Fluoro-2-methoxyphenyl)pyridin-2-yl)-3-(pyridin-4-yl)butanamide] | 82 | – |
| – | – | 93 | 39 | COc1cc(F)ccc1-c1ccnc(NC(=O)C(C)Cc2ccncc2)c1 (stereo not shown) [Example 22, N-(4-(4-Fluoro-2-methoxyphenyl)pyridin-2-yl)-2-((pyridin-4-yl)methyl)-propanamide] | 98 | – |
| – | – | 95 | 35 | COc1cc(F)ccc1-c1ccnc(NC(=O)CC(C)c2cccnc2)c1 (stereo not shown) [Example 23, N-(4-(4-Fluoro-2-methoxyphenyl)pyridin-2-yl)-3-(pyridin-3-yl)butanamide] | 89 | – |
| – | – | 92 | 32 | COc1cc(F)ccc1-c1ccnc(NC(=O)C(C)Cc2cccnc2)c1 (stereo not shown) [Example 24, N-(4-(4-Fluoro-2-methoxyphenyl)pyridin-2-yl)-2-((pyridin-3-yl)methyl)-propanamide] | 104 | – |

Source: US9067888B2, “Inhibitors of protein kinases” (Ingenium Pharmaceuticals GmbH, priority 2010, dated 2015)
